Several values for one entry are separate records, joined by “and”; a condition that tells them apart may be missing. Equal entries are not always repeated. Where two headings read alike, the source gives them in different places.
Assays:
[1] = test system: EBV genome copy number in the Raji Burkitt lymphoma cell line; assay: Raji EBV genome copy number assay; assay type: cell-based, Epstein-Barr virus; conditions: six days, Raji cells, real time PCR EBV DNA (DS) relative to actin
Procedure: To further evaluate the ability of these compounds to inhibit the EBNA1 function required for EBV genome replication, we assayed their effect on EBV genome copy number in the Raji Burkitt lymphoma cell line (Fig. 5). Raji cells typically contain ∼100 copies of the EBV genome per cell. […] Therefore, we assessed the effects of HU, SC7, SC11, and SC19 on EBV copy number in Raji cells. Cells were treated with 10 µM SC7, SC11, SC19 or with 100 µM HU for six days. The EBV genome copy number was determined by real time PCR for EBV DNA (DS) relative to cellular actin DNA.
Raji cells (purchased from ATCC) were grown at 5×10^6 cells/ml in RPMI media supplemented with 10% FBS and 10 mM Streptomycin and 10 mm Penicillin. Test compounds were added to achieve a final concentration of 10 uM. Cells were grown at 37°C for three days and then passaged 1∶10 into fresh media with the same concentration of drug. After a second 3-day incubation cells were harvested and the DNA was isolated using ChIP Lysis Buffer followed by sonication, phenol∶chloroform extraction, and ethanol precipitation. Relative EBV DNA copy number was quantified by real-time PCR with primers for cellular actin and the EBV dyad-symmetry region, as described previously.

[2] = biological target: T1, EBNA1 DNA binding domain (DBD) (Epstein-Barr virus, UniProt P03211); assay: Fluorescence polarization (FP) assay of EBNA1-DNA binding
T1 construct: 246 nM EBNA1 DBD (aa 459–607); hexa-histidine (N); made in house; host or cells: E. coli
T1 sequence (P03211 459-607): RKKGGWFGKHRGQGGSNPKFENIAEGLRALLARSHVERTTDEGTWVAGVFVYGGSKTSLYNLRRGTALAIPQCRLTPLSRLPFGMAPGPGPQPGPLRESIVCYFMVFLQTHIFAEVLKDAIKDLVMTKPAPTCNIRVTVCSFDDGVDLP
Procedure: (§1) The EBNA1 DNA binding domain (DBD) (aa 454–607) with a hexa-histidine amino-terminal fusion protein was expressed in E. coli and purified over Ni-NTA agarose according to manufacturers recommendations (Qiagen). The protein was purified from four liters of E. coli to generate ∼20 mg of highly purified EBNA1 protein, estimated to be >90% pure. Purified protein was then dialyzed into a buffer consisting of 200 mM NaCl, 20 mM, Tris-HCl pH 7.4 and 20% Glycerol. Hexa-His tagged Zta was purified from E. coli to near homogeneity, similar to EBNA1 protein. Purified Zta was dialyzed into 500 mM NaCl, Tris-HCl pH 7.4 and 20% Glycerol.
(§2) A reaction mix containing 200 mM NaCl, 20 mM Tris-Cl pH 7.4, 1 mM DTT, 10 ug/mL BSA, 10 nM Cy5 5′ modified EBNA1 (Cy5-GGGTAGCATATGCTATCTagatagcatatgctaccc) or ZTA (Cy5-CACTGACTCATTaatgagtcagtg binding site) oligonucleotide hairpins (purchased from IDT) and 246 nM EBNA1 DBD (aa 459–607) or 300 nM ZTA full length purified recombinant protein was incubated for 20 minutes at room temperature prior to dispensing (BioTek MicroFlo Select) 30 uL to each well of a 384 well black opaque microtiter plate containing the test compounds. Test plates were centrifuged at 165×g prior to fluoresence polarizaration measurements in an Envision Xciter multilable plate reader (Perkin Elmer) using a Cy5 FP 620 excitation and Cy5 FP P/S-pol 688 emission filters.
(§3) To determine IC50s, an 11- point series of 2-fold dilutions in DMSO was performed in duplicate starting at an initial concentration of 50 mM using a Janus Verispan (Perkin Elmer) to create a master plate. From this master plate 0.5 uL was transfered to black opaque 384 well Optiplate (Perkin Elmer) using a Janus MDT (Perkin Elmer) or to microfuge tubes by hand. The plate or microfuge tubes were assayed using the FP and EMSA protocols described above. […] The data was calculated as percentage of EBNA1 binding activity and then plotted versus the log of the concentration of inhibitor. Using GraphPad Prism 5.0 software the plotted data was fit with a Hill-Slope dose-response curve to calculate the relative IC50.

[3] = biological target: T2, Zta (Epstein-Barr virus, UniProt P03206); assay: Fluorescence polarization (FP) assay of Zta-DNA binding (specificity control); conditions: for IC50: inhibitor 833 to 7 µM, 2-fold dilutions, 300 nM Zta, read-out: IC50, inhibition of Zta-DNA binding (FP, Fig. 3 panel B)
T2 construct: 300 nM ZTA full length purified recombinant protein; Hexa-His; made in house; host or cells: E. coli
T2 sequence (P03206 whole entry): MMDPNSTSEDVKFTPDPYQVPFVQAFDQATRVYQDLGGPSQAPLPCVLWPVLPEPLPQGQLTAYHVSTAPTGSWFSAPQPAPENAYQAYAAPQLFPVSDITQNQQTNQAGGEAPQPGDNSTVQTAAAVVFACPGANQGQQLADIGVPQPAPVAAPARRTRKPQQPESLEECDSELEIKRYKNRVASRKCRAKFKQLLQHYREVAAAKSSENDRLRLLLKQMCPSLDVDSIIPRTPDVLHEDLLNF
Procedure: as §1, §2, §3

[4] = biological target: T2, Zta; assay: EMSA of Zta-DNA binding (specificity control)
Procedure: (§4) An EMSA reaction buffer was prepared containing 20% Glycerol, 200 mM NaCl, 20 mM Tris-Cl pH 7.4, 1 mM DTT, 10 ug/mL BSA, 10 nM Cy5 oligonucleotide probe and with or without 246 nM EBNA1 DBD or 300 nM Zta full length purified recombinant protein. This solution was incubated for 20 minutes at room temperature to ensure binding. 30 uL of this solution was dispensed to eppendorf tubes containing 0.5 uL of a test compound in DMSO and mixed. Samples were then loaded onto a 6% polyacrylamide gel in 1/2X Tris-Borate buffer and electrophoresed for 90 min at 170 V. The gel was then scanned for flouresence using at Typhoon Imager (GE Healthcare).
as §3

[5] = test system: EBNA1 transcription activation of Cp; assay: EBNA1 transcription activation assay (OriP-Cp-Luciferase reporter) in HEK293T cells; assay type: cell-based, Epstein-Barr virus; conditions: 5 µM compound, 48 hrs, transfected HEK293T cells
Procedure: (§5) SC7, SC11, and SC19 were assayed for their ability to inhibit EBNA1 in two cell-based assays. Transcription activation of the EBV Cp promoter by EBNA1 is known to be essential for B-cell immortalization. We therefore assayed the effect of compounds to inhibit EBNA1 transcription activation of Cp using a luciferase reporter-based assay in transiently transfected HEK293T cells (Fig. 4). The luciferase reporter plasmid consisted of a ∼2 kb region of EBV containing both OriP and Cp fused upstream of the luciferase gene. Cotransfection of this plasmid with an EBNA1 expression plasmid produced a 4–5 fold increase in luciferase activity relative to control expression vector lacking EBNA1 (data not shown). Incubation of transfected cells with control vehicle DMSO had no effect on EBNA1 transcription activation. […] As a control for specificity, the same compounds were assayed for their inhibition of Zta transcription activation. Zta is a potent transcription activator of the EBV BHLF1 promoter. We therefore assayed these compounds for their effect on Zta transactivation of BHLF1 promoter fused to luciferase reporter gene.
(§6) HEK293T cells (purchased from ATCC) were seeded in 24-well plates at a density of 50,000 cells/well in DMEM media with 10% FBS. Following an 18 hr incubation at 37°C, cells were transfected using 2 µl of lipofectamine with 0.4 ug/well of a pCMV-FLAG-EBNA1, pCMV-FLAG-ZTA (N362) or a control pCMV-FLAG vector and 0.2 ug/well of either a Cp-Luciferase (EBNA1-reporter) or a HP-Luciferase (Zta-reporter) plasmid. All samples were cotransfected with 100 ng of Renilla expression vector as an internal control for transfection efficiency. After 6 hrs the transfection media was replaced and test compounds were added to achieve a final concentration of 5 uM. Cells were incubated at 37°C for 48 hrs and then harvested. Cells were lysed and prepared for analysis using the Promega Dual Reporter system and luminescence was measured using a Perkin Elmer Wallac Victor^2 1420 Multilabel reader.

[6] = test system: Zta transactivation of BHLF1 promoter; assay: Zta transcription activation assay (BHLF1-Luciferase reporter) in HEK293T cells; assay type: cell-based, Epstein-Barr virus; conditions: for inhibition at 5 µM: human gammaherpesvirus 4, HEK-293T, 48 h, read-out: Inhibition of Zta transactivation
Procedure: as §5, §6

[7] = biological target: T1, EBNA1 DNA binding domain (DBD); assay: EMSA of EBNA1-DNA binding; conditions: Fig. 3
Procedure: as §4, §3

[8] = inhibitor 833 to 7 µM, 2-fold dilutions, 246 nM EBNA1 DBD, read-out: IC50, inhibition of EBNA1-DNA binding (FP, Fig. 3 panel A)
[9] = purified EBNA1 DBD, Cy5 DNA hairpin, read-out: IC50, inhibition of EBNA1-DNA binding in FP assay

| SMILES | Reduction in EBV genome copy number ([1]; 100 µM HU) [%] | IC50 [2, 8] [µM] | IC50 [2, 9] | Inhibition of Zta-DNA binding in FP assay [3] | IC50 [3] [µM] | Inhibition of Zta-DNA binding in EMSA [4] | Inhibition of EBNA1 transcription activation [5] | inhibition at 5 µM [6] [%] | Reduction in EBV genome copy number ([1]; 10 µM compound) | Inhibition of Zta transactivation ([6]; 5 µM compound, 48 hrs, transfected HEK293T cells) | IC50, inhibition of EBNA1-DNA binding in FP assay ([2]; purified EBNA1 DBD, Cy5 DNA hairpin) | Inhibition of EBNA1-DNA binding in EMSA [7] |
| --- | --- | --- | --- | --- | --- | --- | --- | --- | --- | --- | --- | --- |
| NC(=O)NO [HU, hydroxyurea, reference compound] | ~50 |  |  |  |  |  |  |  |  |  |  |  |
| CC(=O)Oc1ccc(N(C(C)=O)S(=O)(=O)c2ccc3ccccc3c2)cc1Br [SC7] |  | 23.7 | 20 to 100 µM and 23 µM | no significant inhibition | 300 | no significant inhibition | completely blocked | ~60 | no apparent effect |  |  |  |
| CC(=O)Nc1ccc(S(=O)(=O)N2c3ccccc3C(C)=CC2(C)C)cc1 [SC11] |  | 92.2 | 20 to 100 µM | no significant inhibition | 406 | no significant inhibition | completely blocked | ~60 | 75–90% |  |  |  |
| N#CCc1ccc(NC(=O)c2cc(Cl)ccc2NS(=O)(=O)c2cccc3nsnc23)cc1 [SC19] |  | 49.1 | 20 to 100 µM and 49 µM | no significant inhibition | ~211 | no significant inhibition | completely blocked |  | 75–90% | no detectable inhibitory effect |  |  |
| CC1CCc2c(sc3nc(SCc4ccc5c(c4)OCO5)nc(N)c23)C1 (centres unmarked) [SC27] |  | 546 |  |  | 193 |  |  |  |  |  | did not perform well in the FP assay | highly specific inhibition of EBNA1 |

Reference: publication PMC2853575, “Discovery of Selective Inhibitors Against EBNA1 via High Throughput In Silico Virtual Screening” (PLoS ONE, 2010)
